We go through seven molecules from patent US7105307B2, “Compositions and methods for screening for modulators of enzymatic activity” (Cyclacel, Ltd., priority 1997, dated 2006).

Where no end group is shown, it is not given here. rhodamine = not defined here

Data set [1] relates to PKA. As to the kind of experiment: Timecourse of phosphorylation of peptides by PKA (32P-ATP). The settings on record: 0.2 mM ATP, pH 7.0. It is filed as biochemical. Here is the method:
Peptides (0.01–1.0 μM) are phosphorylated by purified c-PKA in 50 mM Histidine buffer pH 7.0, 5 mM MgSO4, 1 mM EGTA, 0.1–1.0 μM c-PKA, and 0.2 mM [^32P] γ-ATP (specific activity ˜2Bq/pmol) at 30–37° C. for periods of time ranging from 0 to 60 minutes. Where the chemistry of the peptide is appropriate (i.e. having a basic charge) the phosphopeptide is captured on a cation exchange filter paper (e.g. phosphocellulose P81 paper; Whatman), and reactants are removed by extensive washing in 1% phosphoric acid (see Casnellie, 1991, Methods Enzymol., 200: 115–120). Alternatively, phosphorylation of samples is terminated by the addition of SDS-sample buffer (Laemmli, 1970, Nature, 227: 680–685) and the samples analysed by SDS-PAGE electrophoresis, autoradiography and scintillation counting of gel pieces.
A timecourse of phosphorylation of these peptides by PKA was run in 50 mM histidine/HCl (pH 7.0), 5 mM MgSO4, 5 mM NaF, 0.05 mM EGTA, 120 mM KCl with 0.2 mM ATP (30.9 cpm/pmol ^32P-ATP) and 0.5 μM PKA. […] Zip4T is also phosphorylated, but at a slower rate, with full phosphorylation achieved in 30 minutes in this assay. In this assay, the difference in cpm recovered between the Zip4 peptides and PL919Y was due to the difference in recovery of these peptides on P81 paper; however, a plateau was taken to indicate full phosphorylation.
(§1) A second set of timecourses of phosphorylation was performed on Zip4S using PKA and Ca^2+/Calmodulin-dependent Protein Kinase (CaMKII), together with positive and negative controls for CaMKII (used to confirm that the crude preparation of CaMKII had the expected characteristics of that enzyme). PKA phosphorylation was performed in 50 mM histidine/HCl (pH 7.0), 5 mM MgSO4, 5 mM NaF, 0.05 mM EGTA, 120 mM KCl with 0.2 mM ATP (39.72 cpm/pmol ^32P-ATP) and 0.25 μM PKA. CaMKII phosphorylation was performed in 50 mM histidine/HCl (pH 7.0), 5 mM MgSO4, 5 mM NaF, 120 mM KCl, 0.5 mM Ca^2+, 0.037 mg/ml calmodulin with 0.2 mM ATP (39.72 cpm/pmol ^32P-ATP) and 10% crude CaMKII. In the Ca^2+-free experiment, Ca^2+ was replaced by 0.05 mM EGTA. […] Such specificity of a modification site included in a polypeptide comprising a coiled-coil is critical for use of the invention in an intracellular environment.

The test system of data set [2] is Ca2+/Calmodulin-dependent Protein Kinase (CaMKII). As to the kind of experiment: Timecourse of phosphorylation by CaMKII (32P-ATP). It is filed as biochemical. The settings on record: 10% crude CaMKII, 0.5 mM Ca2+, 0.2 mM ATP. As to the method: as §1
Data set [3] in a line: Circular dichroism spectra and thermal denaturation of coiled-coil peptides. It is filed as physicochemical. As to the method: The circular dichroism (measured in units of ellipticity) of proteins at 222 nm provides a measure of the amount of α-helix present in the structure, with a large, negative ellipticity indicting a high level of helicity. The coiled-coil has a distinctive α-helical CD spectrum with minima at 222 nm and 208 nm (O'Shea et al., 1989, Science, 243: 538–542). […] In all experiments described herein, peptide concentration was determined by tyrosine absorbance at 280 nm in 6M GuHCl. […] It is clear that this leucine zipper peptide began to unfold at around 35° C. and was completely unfolded by 70° C.
As in Example 1, circular dichroism was used to assess the coiled-coil structure of the Zip4 polypeptides and the disruption of that structure by phosphorylation. […] This was confirmed by the CD spectra of Zip4S and Zip4SP at 1° C. (FIG. 12).
The coiled-coil motif has a characteristic CD spectrum. As described above, measurement of circular dichroism is useful to distinguish monomeric polypeptides from oligomers and to assess the stability of the structure present, although the technique cannot give information regarding the number of monomers making up the coiled-coil structure. […] Importantly, these peptides shown only have 4.5 leucine zipper heptads, and the incomplete nature of the final heptad is likely to compromise the stability of the coiled-coil structure.

For data set [4], the system named is PKA. As to the kind of experiment: FRET report of phosphorylation of labeled peptides by PKA. It is filed as biochemical. As to conditions: Zip4SF with Zip4SR, ATP present. As to the method:
Donor and acceptor fluorophore-labeled polypeptides comprising coiled-coils (molar equivalents of fluorophore-labeled polypeptide or molar excess of acceptor-labeled polypeptide) are first mixed (if the two coiled-coils are present on separate polypeptides). Samples are analyzed in a fluorimeter using excitation wavelengths relevant to the donor fluorescent moiety and emission wavelengths relevant to both the donor and acceptor moieties. […] Typically, measurements are performed at 0–37° C. as a function of time following the addition of the modifying enzyme (and, optionally, a modulator or candidate modulator of function for that enzyme, as described below) to the system in 50 mM histidine pH 7.0, 120 mM KCl, 5 mM MgSO4, 5 mM NaF, 0.05 mM EGTA and 0.2 mM ATP. The assay may be performed at a higher temperature if that temperature is compatible with the enzyme(s) under study.
(§2) Fluorescence was used to report on the phosphorylation status of these peptides (FIG. 13). […] No loss of FRET was observed on addition of PKA in the absence of ATP (data not shown).
Calculation of the ratio of fluorescence output is important, particularly for in vivo applications, thereby avoiding error due to high local concentrations of reporter in the system and enhancing the ability to observe meaningful change.

Another data set concerns partner peptide. The data set is described as follows: FRET between fluorescein- and rhodamine-labeled coiled-coil peptides (association). It is filed as binding. As to conditions: emission at 516 nm. Here is the method:
Peptides were then labeled using a method adapted from one known in the art (Hermanson, 1997, Bioconjugate Techniques, Academic Press). 20 mM fluorescein iodoacetamide (FAM) in DMSO and 0.23 mM peptide in 20 mM TES buffer, pH 7.0 were prepared. These were mixed in a molar ratio of 0.9:1 (peptide:label) and incubated at 4° C. in the dark for a minimum of 2 hours. Initially, this method was also applied to labelling with rhodamine maleimide at a ratio of 0.9:2; however, in other experiments, good labelling has been obtained using rhodamine iodoacetamide at a ratio of 0.9:1. Labelling was assessed by reverse phase HPLC (C18 column; solvent A: H2O/0.1% TFA; solvent B: acetonitrile/0.1% TFA) and MALDI-TOF mass spectrometry.
This was accompanied by an increase in fluorescence detected in the rhodamine emission region (not shown).
as §2

Data set [5] concerns the molecule itself. As to the kind of experiment: circular dichroism, self-association.
The next data set deals with T1, Zip4SF (not fully specified; fluorescent donor label (fluorescein, by analogy with Zip3F) on the single Cys).
T1 peptide: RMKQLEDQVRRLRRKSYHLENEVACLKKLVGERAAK
As to the kind of experiment: FRET, emission spectra.

In the case of “R MKQLEDQ VRRLRRK SYHLENE VACLKKL VGERAAK (RMKQLEDQVRRLRRKSYHLENEVACLKKLVGERAAK) [Zip4S, 28]”, the “phosphorylation by PKA (extent)” value with PKA [1] (0.25 μM PKA) was “complete phosphorylation”. Besides, the “phosphorylation by PKA (substrate quality, rate)” value with PKA [1] (0.5 μM PKA) is listed as “good substrate”. Besides, the “phosphorylation by CaMKII” value in data set [2] is given as “unable to phosphorylate”.
Consider “Zip4SP: enzymatically phosphorylated Zip4S (RMKQLEDQVRRLRRKSYHLENEVACLKKLVGERAAK; also: enzymatically phosphorylated (site not given here))”, for which, in data set [3] (from starting temperature of 1° C.), the “folding state in thermal melting/denaturation (ellipticity at 222 nm)” value is “unfolded polypeptide in solution”.
For “R MKQLEDQ VRRLRRK TYHLENE VACLKKL VGERAAK (RMKQLEDQVRRLRRKTYHLENEVACLKKLVGERAAK) [Zip4T, 29]”, in the data set with PKA [1] (0.5 μM PKA), the “phosphorylation by PKA (substrate quality, rate)” value was “slower rate” and the “time to full phosphorylation by PKA” value turned out to be 30 min. Besides, in data set [3] (same conditions as Zip3), the “relative thermostability (thermal denaturation by CD)” value is on record as “more stable than was Zip4S”.
Consider “Zip4SF: Zip4S labeled with fluorescein (FRET donor) (RMKQLEDQVRRLRRKSYHLENEVACLKKLVGERAAK; also: labeled with fluorescein (site not given here))”, for which, in the data set with PKA [4], the “emission at 516 nm on addition of PKA (loss of FRET)” value is on record as “returned to above the level produced by Zip4SF alone”. Besides, in the data set with partner peptide, the “FRET upon addition of Zip4SR” value is on record as “loss of emission at 516 nm”.

B1: Zip 2 (peptide)
peptide: RRIRRASIDKVEELKSKNYCLENEVARLKKLVGER
notes: Initial unsuccessful reporter peptide; also called Zip2s
As to B1, the binding result in data set [5] is reported as “binds”.

B2: Zip 1 (peptide)
peptide: HMKQLEDKVEELLSKNYCLENEVRRLRRASFSLQ
notes: Initial unsuccessful reporter peptide
Regarding B2, in data set [5], the binding result is recorded as “binds”.

B3: Zip4SR (peptide)
peptide: RMKQLEDQVRRLRRKSYHLENEVAC(rhodamine)LKKLVGERAAK
modifications: reading uncertain
notes: the labelling of Zip4S itself is not spelled out
Consider B3, for which the binding result with Zip4SF is recorded as “binds”.
